Experimental data from US20250382344A1, “Soluble GLP1/GIP/NPY2 Receptor Triple Agonists” (Boehringer Ingelheim International GmH, priority 2024, published 2025).
Like-named read-outs stand apart in the source and are kept apart here. *1 amine or outer side, *2 acyl side, *3 side chain or, on linkers, in order; H or OH if unused. Where a SMILES comes first, the peptide text is derived from it. Side-chain parts run from the residue outwards. [ ]: non-standard residue; d: D form. The star is where a group is joined. C18 diacid = O=C(O)CCCCCCCCCCCCCCCCC(=O)*; γGlu = O=C(O)[C@H](CCC(=O)[*:2])N[*:1]; Aib = CC(C)(N)C(=O)O

How the values were obtained:
hGLP1R = target: T1, hGLP1R (Homo sapiens, UniProt P43220); assay: hGLP1R CreLuc assay in 0.5% and 100% plasma (HEK-293 CRE-luciferase reporter cells); assay type: cell-based; settings: HEK-293 reporter cells
T1 construct: expressed in transfected cells; host or cells: HEK-293 CRE-luciferase reporter cells

hGIPR = target: T2, hGIPR (Homo sapiens, UniProt P48546); assay: hGIPR CreLuc assay in 0.5% and 100% plasma (CHO CRE-luciferase reporter cells); assay type: cell-based
T2 construct: expressed in transfected cells; host or cells: CHO CRE-luciferase reporter cells
T2 sequence (P48546 22-466): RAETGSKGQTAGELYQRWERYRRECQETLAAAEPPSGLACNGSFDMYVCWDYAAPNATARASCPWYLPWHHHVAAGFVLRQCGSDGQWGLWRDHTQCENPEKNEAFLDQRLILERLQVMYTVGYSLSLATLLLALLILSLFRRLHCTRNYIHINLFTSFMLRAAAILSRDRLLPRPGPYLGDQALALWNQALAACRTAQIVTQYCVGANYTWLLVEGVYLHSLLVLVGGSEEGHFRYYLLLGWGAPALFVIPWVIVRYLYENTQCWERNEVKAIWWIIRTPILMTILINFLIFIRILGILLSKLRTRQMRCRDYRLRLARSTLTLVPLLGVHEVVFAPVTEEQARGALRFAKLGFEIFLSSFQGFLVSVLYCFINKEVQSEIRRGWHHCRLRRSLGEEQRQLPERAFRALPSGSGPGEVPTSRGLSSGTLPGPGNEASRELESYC

[1] = Solubility in 0.1 M phosphate buffer at pH 7; assay type: physicochemical; settings: 0.1 M phosphate buffer at pH 7, 10 mg/mL final peptide concentration, shaking 2 hours at room temperature, peptides as TFA-salts; measured sample pH 6.5-7.0
[2] = 0.5% human plasma, read-out: hGLP1R 0.5% hP
[3] = 0.5% human plasma, read-out: hGIPR 0.5% hP
[4] = 100% human plasma, read-out: hGIPR 100% hP
[5] = 100% human plasma, read-out: hGLP1R 100% hP

T1 sequence (P43220 24-463): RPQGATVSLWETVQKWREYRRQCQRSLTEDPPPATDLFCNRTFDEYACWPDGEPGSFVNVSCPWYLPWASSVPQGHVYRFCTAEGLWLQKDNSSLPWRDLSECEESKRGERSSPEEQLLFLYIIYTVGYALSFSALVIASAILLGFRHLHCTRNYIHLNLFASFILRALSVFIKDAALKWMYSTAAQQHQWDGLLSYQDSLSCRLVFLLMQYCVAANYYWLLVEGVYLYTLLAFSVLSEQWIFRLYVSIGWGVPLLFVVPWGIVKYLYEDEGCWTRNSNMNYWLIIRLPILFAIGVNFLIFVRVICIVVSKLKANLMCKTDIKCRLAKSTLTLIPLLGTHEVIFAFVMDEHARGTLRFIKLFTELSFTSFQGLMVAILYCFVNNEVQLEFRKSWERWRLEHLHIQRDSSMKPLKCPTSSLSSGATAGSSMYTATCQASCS

SMILES | EC50 (hGLP1R; [2]) | EC50 (hGIPR; [3]) | EC50 (hGIPR; [4]) | solubility at 2 h [1] | EC50 (hGLP1R; [5])
CC[C@H](C)[C@H](NC(=O)[C@H](CC(C)C)NC(=O)[C@H](Cc1c[nH]cn1)NC(=O)[C@H](CCCNC(=N)N)NC(=O)[C@@H](NC(=O)[C@H](Cc1ccccc1)NC(=O)[C@H](C)NC(=O)C(C)(C)NC(=O)[C@H](CCC(N)=O)NC(=O)[C@H](C)NC(=O)[C@H](CCC(N)=O)NC(=O)[C@H](CCCCN)NC(=O)[C@H](CCC(=O)O)NC(=O)[C@H](CC(C)C)NC(=O)C(C)(C)NC(=O)[C@@H](NC(=O)[C@H](CO)NC(=O)[C@H](Cc1ccc(O)cc1)NC(=O)[C@H](CC(=O)O)NC(=O)[C@H](CO)NC(=O)[C@@H](NC(=O)[C@H](Cc1ccccc1)NC(=O)[C@@H](NC(=O)CNC(=O)[C@H](CCC(=O)O)NC(=O)C(C)(C)NC(=O)[C@@H](N)Cc1ccc(O)cc1)[C@@H](C)O)[C@@H](C)O)[C@@H](C)CC)C(C)C)C(=O)N[C@@H](CC(N)=O)C(=O)N[C@@H](CCCCNC(=O)[C@@H](N)CCCCNC(=O)CC[C@H](NC(=O)CC[C@H](NC(=O)CC[C@H](NC(=O)CC[C@H](NC(=O)CC[C@H](NC(=O)CC[C@H](NC(=O)CCCCCCCCCCCCCCCCC(=O)O)C(=O)O)C(=O)O)C(=O)O)C(=O)O)C(=O)O)C(=O)O)C(=O)NC(C)(C)C(=O)N[C@H](C(=O)N[C@@H](CCCNC(=N)N)C(=O)N[C@@H](CCC(N)=O)C(=O)N[C@@H](CCCNC(=N)N)C(=O)N(C)[C@@H](Cc1ccc(O)cc1)C(N)=O)[C@@H](C)O [Compound 116, Y-Aib-E-G-T-F-T-S-D-Y-S-I-Aib-L-E-K-Q-A-Q-Aib-A-F-V-R-H-L-I-N-K(1,3)-Aib-T-R-Q-R-NMeY-NH2.C18DA-gGlu-gGlu-gGlu-gGlu-gGlu-gGlu-eLys(1,2)] | 2 nM | 0.3 nM | 3.4 nM | 4200 µg/mL | –
CC[C@H](C)[C@H](NC(=O)[C@H](CC(C)C)NC(=O)[C@H](Cc1c[nH]cn1)NC(=O)[C@H](CCCNC(=N)N)NC(=O)[C@@H](NC(=O)[C@H](Cc1ccccc1)NC(=O)[C@H](C)NC(=O)C(C)(C)NC(=O)[C@H](CCC(N)=O)NC(=O)[C@H](C)NC(=O)[C@H](CCC(N)=O)NC(=O)[C@H](CCCCN)NC(=O)[C@H](CCC(=O)O)NC(=O)[C@H](CC(C)C)NC(=O)C(C)(C)NC(=O)[C@@H](NC(=O)[C@H](CO)NC(=O)[C@H](Cc1ccc(O)cc1)NC(=O)[C@H](CC(=O)O)NC(=O)[C@H](CO)NC(=O)[C@@H](NC(=O)[C@H](Cc1ccccc1)NC(=O)[C@@H](NC(=O)CNC(=O)[C@H](CCC(=O)O)NC(=O)C(C)(C)NC(=O)[C@@H](N)Cc1ccc(O)cc1)[C@@H](C)O)[C@@H](C)O)[C@@H](C)CC)C(C)C)C(=O)N[C@@H](CC(N)=O)C(=O)N[C@@H](CCCCNC(=O)[C@@H](N)CCCCNC(=O)CC[C@H](NC(=O)CC[C@H](NC(=O)CC[C@H](NC(=O)CC[C@H](NC(=O)CC[C@H](NC(=O)CC[C@H](NC(=O)CCCCCCCCCCCCCCCCC(=O)O)C(=O)O)C(=O)O)C(=O)O)C(=O)O)C(=O)O)C(=O)O)C(=O)N[C@@H](CC(C)C)C(=O)N[C@H](C(=O)N[C@@H](CCCNC(=N)N)C(=O)N[C@@H](CCC(N)=O)C(=O)N[C@@H](CCCNC(=N)N)C(=O)N[C@@H](Cc1ccc(O)cc1)C(N)=O)[C@@H](C)O [Compound 127, Y-Aib-E-G-T-F-T-S-D-Y-S-I-Aib-L-E-K-Q-A-Q-Aib-A-F-V-R-H-L-I-N-K(1,3)-L-T-R-Q-R-Y-NH2.C18DA-gGlu-gGlu-gGlu-gGlu-gGlu-gGlu-eLys(1,2)] | – | 0.4 nM | – | 4500 µg/mL | 4 nM
CC[C@H](C)[C@H](NC(=O)[C@H](CC(C)C)NC(=O)[C@H](C)NC(=O)[C@H](CCCNC(=N)N)NC(=O)[C@@H](NC(=O)[C@H](Cc1ccccc1)NC(=O)[C@H](C)NC(=O)C(C)(C)NC(=O)[C@H](CCC(N)=O)NC(=O)[C@H](C)NC(=O)[C@H](CCC(N)=O)NC(=O)[C@H](CCCCN)NC(=O)[C@H](CCC(=O)O)NC(=O)[C@H](CC(C)C)NC(=O)C(C)(C)NC(=O)[C@@H](NC(=O)[C@H](CO)NC(=O)[C@H](Cc1ccc(O)cc1)NC(=O)[C@H](CC(=O)O)NC(=O)[C@H](CO)NC(=O)[C@@H](NC(=O)[C@H](Cc1ccccc1)NC(=O)[C@@H](NC(=O)CNC(=O)[C@H](CCC(=O)O)NC(=O)C(C)(C)NC(=O)[C@@H](N)Cc1ccc(O)cc1)[C@@H](C)O)[C@@H](C)O)[C@@H](C)CC)C(C)C)C(=O)N[C@@H](CC(N)=O)C(=O)N[C@@H](CCCCNC(=O)[C@@H](N)CCCCNC(=O)CC[C@H](NC(=O)CC[C@H](NC(=O)CC[C@H](NC(=O)CC[C@H](NC(=O)CC[C@H](NC(=O)CC[C@H](NC(=O)CCCCCCCCCCCCCCCCC(=O)O)C(=O)O)C(=O)O)C(=O)O)C(=O)O)C(=O)O)C(=O)O)C(=O)NC(C)(C)C(=O)N[C@H](C(=O)N[C@@H](CCCNC(=N)N)C(=O)N[C@@H](CCC(N)=O)C(=O)N[C@@H](CCCNC(=N)N)C(=O)N[C@@H](Cc1ccc(O)cc1)C(N)=O)[C@@H](C)O [Compound 128, Y-Aib-E-G-T-F-T-S-D-Y-S-I-Aib-L-E-K-Q-A-Q-Aib-A-F-V-R-A-L-I-N-K(1,3)-Aib-T-R-Q-R-Y-NH2.C18DA-gGlu-gGlu-gGlu-gGlu-gGlu-gGlu-eLys(1,2)] | 0.7 nM | 0.2 nM | – | 4100 µg/mL | 4 nM
CC[C@H](C)[C@H](NC(=O)[C@H](CC(C)C)NC(=O)[C@H](Cc1c[nH]cn1)NC(=O)[C@H](CCCNC(=N)N)NC(=O)[C@@H](NC(=O)[C@H](Cc1ccccc1)NC(=O)[C@H](CCC(=O)O)NC(=O)C(C)(C)NC(=O)[C@H](CCC(N)=O)NC(=O)[C@H](C)NC(=O)[C@H](CCC(N)=O)NC(=O)[C@H](CCC(=O)O)NC(=O)[C@H](CCC(=O)O)NC(=O)[C@H](CC(C)C)NC(=O)C(C)(C)NC(=O)[C@@H](NC(=O)[C@H](CO)NC(=O)[C@H](Cc1ccc(O)cc1)NC(=O)[C@H](CC(=O)O)NC(=O)[C@H](CO)NC(=O)[C@@H](NC(=O)[C@H](Cc1ccccc1)NC(=O)[C@@H](NC(=O)CNC(=O)[C@H](CCC(=O)O)NC(=O)C(C)(C)NC(=O)[C@@H](N)Cc1ccc(O)cc1)[C@@H](C)O)[C@@H](C)O)[C@@H](C)CC)C(C)C)C(=O)N[C@@H](CC(N)=O)C(=O)N[C@@H](CCCCNC(=O)CC[C@H](NC(=O)CC[C@H](NC(=O)CC[C@H](NC(=O)CC[C@H](NC(=O)CCCCCCCCCCCCCCCCC(=O)O)C(=O)O)C(=O)O)C(=O)O)C(=O)O)C(=O)NC(C)(C)C(=O)N[C@H](C(=O)N[C@@H](CCCNC(=N)N)C(=O)N[C@@H](CCC(N)=O)C(=O)N[C@@H](CCCNC(=N)N)C(=O)N[C@@H](Cc1ccc(O)cc1)C(N)=O)[C@@H](C)O [Compound 129, Y-Aib-E-G-T-F-T-S-D-Y-S-I-Aib-L-E-E-Q-A-Q-Aib-E-F-V-R-H-L-I-N-K(1,3)-Aib-T-R-Q-R-Y-NH2.C18DA-gGlu-gGlu-gGlu-gGlu(1,2)] (H-Y[Aib]EGTFTSDYSI[Aib]LEEQAQ[Aib]EFVRHLINK([γGlu-γGlu-γGlu-γGlu-C18 diacid])[Aib]TRQRY-NH2) | 0.9 nM | 0.4 nM | 7.1 nM | 5100 µg/mL | 2.8 nM
CC[C@H](C)[C@H](NC(=O)[C@H](CC(C)C)NC(=O)[C@H](Cc1c[nH]cn1)NC(=O)[C@H](CCCNC(=N)N)NC(=O)[C@@H](NC(=O)[C@H](Cc1ccccc1)NC(=O)[C@H](CCC(=O)O)NC(=O)C(C)(C)NC(=O)[C@H](CCC(N)=O)NC(=O)[C@H](C)NC(=O)[C@H](CCC(=O)O)NC(=O)[C@H](CCC(=O)O)NC(=O)[C@H](CCC(=O)O)NC(=O)[C@H](CC(C)C)NC(=O)C(C)(C)NC(=O)[C@@H](NC(=O)[C@H](CO)NC(=O)[C@H](Cc1ccc(O)cc1)NC(=O)[C@H](CC(=O)O)NC(=O)[C@H](CO)NC(=O)[C@@H](NC(=O)[C@H](Cc1ccccc1)NC(=O)[C@@H](NC(=O)CNC(=O)[C@H](CCC(=O)O)NC(=O)C(C)(C)NC(=O)[C@@H](N)Cc1ccc(O)cc1)[C@@H](C)O)[C@@H](C)O)[C@@H](C)CC)C(C)C)C(=O)N[C@@H](CC(N)=O)C(=O)N[C@@H](CCCCNC(=O)COCCOCCNC(=O)COCCOCCNC(=O)CC[C@H](NC(=O)CCCCCCCCCCCCCCCCC(=O)O)C(=O)O)C(=O)NC(C)(C)C(=O)N[C@H](C(=O)N[C@@H](CCCNC(=N)N)C(=O)N[C@@H](CCC(N)=O)C(=O)N[C@@H](CCCNC(=N)N)C(=O)N[C@@H](Cc1ccc(O)cc1)C(N)=O)[C@@H](C)O [Compound 130, Y-Aib-E-G-T-F-T-S-D-Y-S-I-Aib-L-E-E-E-A-Q-Aib-E-F-V-R-H-L-I-N-K(1,3)-Aib-T-R-Q-R-Y-NH2.C18DA-gGlu-OEG-OEG(1,2)] | 0.5 nM | 0.5 nM | – | 5000 µg/mL | –
